Counter-ions that a name gives are not always drawn.
Key:
Assay type in all cases: biochemical
[1] = target: T1, recombinant human MAO-A (monoamine oxidase-A) (Homo sapiens, UniProt P21397); test: Amplex Red HRP-coupled amine oxidase assay, recombinant human MAO-A; settings: 0.5 mM tyramine substrate, read-out: Inhibitory activity (IC50, nM) MAO-A
T1 construct: purchased Sigma-Aldrich
T1 sequence (P21397 1-527): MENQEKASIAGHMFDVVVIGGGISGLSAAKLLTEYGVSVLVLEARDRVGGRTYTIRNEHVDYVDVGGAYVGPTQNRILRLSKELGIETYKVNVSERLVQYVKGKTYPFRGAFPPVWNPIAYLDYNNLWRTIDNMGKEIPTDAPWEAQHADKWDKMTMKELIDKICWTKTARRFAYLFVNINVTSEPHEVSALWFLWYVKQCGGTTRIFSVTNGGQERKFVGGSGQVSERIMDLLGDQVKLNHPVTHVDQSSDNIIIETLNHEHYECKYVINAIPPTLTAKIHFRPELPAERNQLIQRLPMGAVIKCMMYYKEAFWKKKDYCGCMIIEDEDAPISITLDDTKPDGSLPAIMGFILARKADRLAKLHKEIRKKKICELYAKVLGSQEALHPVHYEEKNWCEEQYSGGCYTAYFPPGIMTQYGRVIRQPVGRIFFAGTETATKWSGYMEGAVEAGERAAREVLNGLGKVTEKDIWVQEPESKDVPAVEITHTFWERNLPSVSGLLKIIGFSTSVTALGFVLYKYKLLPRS
Method: (§1) The activities of the compounds according to the present invention against recombinant human Lysyl Oxidase-Like 2 (recombinant human LOXL2, R&D systems) were evaluated by measuring the levels of hydrogen peroxide in the HRP (horseradish peroxidase) coupled reactions, with the Amplex Red Hydrogen Peroxide Assay Kit (Molecular Probes, Invitrogen, USA). The tests were carried out at 37° C., and putrescine was used as a substrate. In the HRP coupling reaction, the oxidation of 10-acetyl-3,7-dihydroxyphenoxazine (Amplex Red reagent) by hydrogen peroxide generates a fluorescent product, i.e., resorufin. Briefly, the test compounds were dissolved in dimethyl sulfoxide (DMSO) at a concentration of 20 mM. Dose-response measurements were carried out by serial dilutions in DMSO to generate a six-point curve. The upper concentration was adjusted according to the potency of the compound, and then diluted with the reaction buffer to obtain a final DMSO concentration of 1%. Purified human LOXL2 in 50 mM sodium phosphate buffer (pH7.4) was added to each well of a 96 well black plate. The test compounds dissolved in DMSO were incubated with the human LOXL2 enzyme at 37° C. for 60 minutes. After the incubation for 60 minutes, a reaction mixture containing 400 μM Amplex Red reagent, 30 mM putrescine, and 2 U/mL HRP in 50 mM sodium phosphate buffer (pH 7.4) was added to each well. Fluorescence was measured with a microplate reader (Flexstation3, Molecular Devices), under the conditions of excitation at 530 nm and emission at 590 nm, 1 hour after the addition of the mixture. Inhibition by each compound was measured as % reduction in signal, compared to the control without an inhibitor (diluted DMSO only). The data were fixed to a four-variable logistic model, and […] values were calculated using the GraphPad Prism program.
(§2) And, the activities of the compounds according to the present invention against recombinant human MAO-A (monoamine oxidase-A, Sigma-Aldrich) and recombinant human MAO-B (monoamine oxidase-B, Sigma-Aldrich) were evaluated in a similar manner to the activity evaluation method for recombinant human LOXL2, using 0.5 mM tyramine and 1 mM benzylamine as a substrate, respectively. In addition, the activities of the compounds according to the present invention against recombinant human DAO (diamine oxidase, R&D systems) were evaluated in a similar manner to the activity evaluation method for recombinant human LOXL2, using 1 mM putrescine as a substrate.

[2] = target: T2, recombinant human MAO-B (monoamine oxidase-B) (Homo sapiens, UniProt P27338); test: Amplex Red HRP-coupled amine oxidase assay, recombinant human MAO-B; settings: 1 mM benzylamine substrate, read-out: Inhibitory activity (IC50, nM) MAO-B
T2 construct: purchased Sigma-Aldrich
T2 sequence (P27338 1-520): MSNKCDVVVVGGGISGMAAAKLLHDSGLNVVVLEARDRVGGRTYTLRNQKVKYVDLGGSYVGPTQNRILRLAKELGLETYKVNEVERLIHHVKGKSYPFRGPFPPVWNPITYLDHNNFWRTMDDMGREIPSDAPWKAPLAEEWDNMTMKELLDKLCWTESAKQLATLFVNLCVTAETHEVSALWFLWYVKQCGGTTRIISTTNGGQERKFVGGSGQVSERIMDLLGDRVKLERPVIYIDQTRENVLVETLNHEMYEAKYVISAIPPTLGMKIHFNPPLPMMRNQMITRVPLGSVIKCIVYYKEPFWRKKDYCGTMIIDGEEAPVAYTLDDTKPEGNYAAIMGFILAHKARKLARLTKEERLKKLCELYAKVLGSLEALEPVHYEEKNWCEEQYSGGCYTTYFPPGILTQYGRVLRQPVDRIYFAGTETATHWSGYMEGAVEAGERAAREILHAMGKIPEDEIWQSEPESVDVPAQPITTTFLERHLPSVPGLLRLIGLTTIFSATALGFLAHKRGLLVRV
Method: as §1, §2

[3] = target: T3, recombinant human DAO (diamine oxidase) (Homo sapiens, UniProt P19801); test: Amplex Red HRP-coupled amine oxidase assay, recombinant human DAO; settings: 1 mM putrescine substrate, read-out: Inhibitory activity (IC50, nM) DAO
T3 construct: purchased R&D systems
T3 sequence (P19801 20-751): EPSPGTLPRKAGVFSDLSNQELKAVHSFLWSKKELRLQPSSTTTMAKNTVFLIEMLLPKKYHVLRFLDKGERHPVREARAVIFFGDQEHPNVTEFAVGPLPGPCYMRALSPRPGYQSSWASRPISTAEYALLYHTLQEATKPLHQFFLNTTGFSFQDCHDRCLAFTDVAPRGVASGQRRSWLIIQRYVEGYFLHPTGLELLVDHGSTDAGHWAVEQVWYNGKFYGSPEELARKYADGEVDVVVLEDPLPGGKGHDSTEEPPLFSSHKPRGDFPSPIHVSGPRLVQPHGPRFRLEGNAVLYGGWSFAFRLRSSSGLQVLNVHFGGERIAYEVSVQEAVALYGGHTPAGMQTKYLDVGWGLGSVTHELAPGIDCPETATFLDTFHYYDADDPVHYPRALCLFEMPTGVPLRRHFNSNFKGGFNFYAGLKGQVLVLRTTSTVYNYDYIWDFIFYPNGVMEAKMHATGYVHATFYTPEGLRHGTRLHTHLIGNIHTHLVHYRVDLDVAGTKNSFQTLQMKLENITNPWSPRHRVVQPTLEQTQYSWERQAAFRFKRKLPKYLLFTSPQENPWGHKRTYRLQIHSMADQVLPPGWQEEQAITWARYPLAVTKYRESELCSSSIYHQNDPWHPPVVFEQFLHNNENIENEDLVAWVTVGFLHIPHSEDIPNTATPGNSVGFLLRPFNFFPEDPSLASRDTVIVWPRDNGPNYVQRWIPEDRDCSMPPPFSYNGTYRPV
Method: as §1, §2

[4] = target: T4, recombinant human Lysyl Oxidase-Like 2 (LOXL2) (Homo sapiens, UniProt Q9Y4K0); test: Amplex Red HRP-coupled amine oxidase assay, recombinant human LOXL2; settings: 60 min incubation with enzyme at 37° C., putrescine substrate, read-out: Inhibitory activity (IC50, nM) human LOXL2
T4 construct: purchased R&D systems
T4 sequence (Q9Y4K0 26-774): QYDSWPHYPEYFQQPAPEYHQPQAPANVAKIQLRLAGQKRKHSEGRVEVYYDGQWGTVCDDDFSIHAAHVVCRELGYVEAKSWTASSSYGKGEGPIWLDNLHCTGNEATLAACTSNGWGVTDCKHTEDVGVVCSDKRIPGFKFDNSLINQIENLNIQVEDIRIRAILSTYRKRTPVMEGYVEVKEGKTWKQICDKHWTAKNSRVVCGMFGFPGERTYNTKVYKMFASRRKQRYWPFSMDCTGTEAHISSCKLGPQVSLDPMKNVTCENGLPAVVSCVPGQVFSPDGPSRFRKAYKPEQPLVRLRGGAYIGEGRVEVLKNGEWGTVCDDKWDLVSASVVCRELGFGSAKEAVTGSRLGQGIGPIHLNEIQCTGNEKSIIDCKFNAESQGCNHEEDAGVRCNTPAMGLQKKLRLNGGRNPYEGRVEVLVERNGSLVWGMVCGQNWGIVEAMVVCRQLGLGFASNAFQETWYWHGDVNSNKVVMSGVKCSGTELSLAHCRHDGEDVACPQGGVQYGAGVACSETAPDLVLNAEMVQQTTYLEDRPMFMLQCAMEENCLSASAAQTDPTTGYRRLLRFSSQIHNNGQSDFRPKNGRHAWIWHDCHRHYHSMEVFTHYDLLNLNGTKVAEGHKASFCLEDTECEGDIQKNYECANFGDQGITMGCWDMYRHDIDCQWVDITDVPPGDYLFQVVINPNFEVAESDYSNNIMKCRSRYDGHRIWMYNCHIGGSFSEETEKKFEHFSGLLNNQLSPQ
Method in brief: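 Putrescine substrate (30 mM) in 50 mM sodium phosphate pH 7.4, 37 °C; compounds preincubated 60 min with enzyme, 1% DMSO final, six-point curves. H2O2 detected via 400 μM Amplex Red/2 U/mL HRP, fluorescence (ex 530/em 590 nm) after 1 h; IC50 from four-parameter logistic fit of % signal reduction.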

| Structure (SMILES) | IC50 [1] [nM] | IC50 [2] [nM] | IC50 [3] [nM] | IC50 [4] [nM] |
| --- | --- | --- | --- | --- |
| COC(=O)c1cc(-c2cccc(S(C)(=O)=O)c2)c2ncn(C/C(F)=C/CN)c2c1 [Example 25, methyl (Z)-1-(4-amino-2-fluorobut-2-en-1-yl)-4-(3-(methylsulfonyl)phenyl)-1H-benzo[d]imidazol-6-carboxylate hydrochloride] | > 100000 | > 100000 | 1230 | 22.7 |
| CCS(=O)(=O)c1cccc(-c2cc(C(=O)OC)cc3c2ncn3C/C(F)=C/CN)c1 [Example 34, methyl (Z)-1-(4-amino-2-fluorobut-2-en-1-yl)-4-(3-(ethylsulfonyl)phenyl)-1H-benzo[d]imidazol-6-carboxylate hydrochloride] | > 100000 | > 100000 | 495 | 37.6 |
| CNS(=O)(=O)c1cccc(-c2cc(C(F)(F)F)cc3c2ncn3C/C(F)=C/CN)c1 [Example 20, (Z)-3-(1-(4-amino-2-fluorobut-2-en-1-yl)-6-(trifluoromethyl)-1H-benzo[d]imidazol-4-yl)-N-methylbenzenesulfonamide hydrochloride] | > 100000 | > 100000 | > 100000 | 77 |
| N#Cc1cc(-c2cccc(S(=O)(=O)N3CCCC3)c2)c2ncn(C/C(F)=C/CN)c2c1 [Example 181, (Z)-1-(4-amino-2-fluorobut-2-en-1-yl)-4-(3-(pyrrolidin-1-ylsulfonyl)phenyl)-1H-benzo[d]imidazol-6-carbonitrile hydrochloride] | > 100000 | > 100000 | – | 43.1 |
| CC(=O)c1ccc(F)c(-c2cc(C#N)cc3c2ncn3C/C(F)=C/CN)c1 [Example 184, (Z)-4-(5-acetyl-2-fluorophenyl)-1-(4-amino-2-fluorobut-2-en-1-yl)-1H-benzo[d]imidazol-6-carbonitrile hydrochloride] | > 100000 | > 100000 | – | 99 |

Other lines, results leading:

| IC50 [1] [nM] | IC50 [2] [nM] | IC50 [3] [nM] | IC50 [4] [nM] | Structure (SMILES) |
| --- | --- | --- | --- | --- |
| > 100000 | > 100000 | 646 | 83 | COC(=O)c1cc(-c2cccc(S(C)(=O)=O)c2)c2nc(C)n(C/C(F)=C/CN)c2c1 [Example 67, methyl (Z)-1-(4-amino-2-fluorobut-2-en-1-yl)-2-methyl-4-(3-(methylsulfonyl)phenyl)-1H-benzo[d]imidazol-6-carboxylate hydrochloride] |
| 81200 | > 100000 | 2210 | 304 | NC/C=C(\F)Cn1cnc2c(-c3cncc(Cl)c3)cc(C(F)(F)F)cc21 [Example 174, (Z)-4-(4-(5-chloropyridin-3-yl)-6-(trifluoromethyl)-1H-benzo[d]imidazol-1-yl)-3-fluoro-but-2-en-1-amine hydrochloride] |
| > 100000 | > 100000 | 5560 | 159 | N#Cc1cc(-c2ccn(CCO)n2)c2ncn(C/C(F)=C/CN)c2c1 [Example 195, (Z)—1-(4-amino-2-fluorobut-2-en-1-yl)-4-(1-(2-hydroxyethyl)-1H-pyrazol-3-yl)-1H-benzo[d]imidazol-6-carbonitrile hydrochloride] |
| > 100000 | > 100000 | 44500 | 82.3 | COC(=O)c1cc(-c2cccc(P(C)(C)=O)c2)c2ncn(C/C(F)=C/CN)c2c1 [Example 38, methyl (Z)-1-(4-amino-2-fluorobut-2-en-1-yl)-4-(3-(dimethylphosphoryl)phenyl)-1H-benzo[d]imidazol-6-carboxylate hydrochloride] |
| 15400 | > 100000 | 3730 | 269 | NC/C=C(\F)Cn1cnc2c(-c3cncc(F)c3)cc(C(F)(F)F)cc21 [Example 173, (Z)-3-fluoro-4-(4-(5-fluoropyridin-3-yl)-6-(trifluoromethyl)-1H-benzo[d]imidazol-1-yl)but-2-en-1-amine hydrochloride] |

From patent US12686665B2, “Bicyclic fused ring derivative or salt thereof and pharmaceutical composition comprising same” (YUHAN CORPORATION, priority 2021, dated 2026)
